Data reported in patent US20230233425A1, “USE OF VOLATILE COMPOSITIONS TO LIMIT OR ELIMINATE THE PERCEPTION OF MALODOR” (Firmenich SA, priority 2017, published 2023).
Like-named read-outs stand apart in the source and are kept apart here. Marks after values point to notes of the source that are not given here.

Tests used:
[1] = tested on: geonol malodor (earthy/moss odor) perception; test: Sensory evaluation of geonol earthy/moss odor in iso-intense binary mixtures (glass jars); assay type: in vivo, human; details: iso-intense binary mixture
Excerpt: (§1) Sensory Evaluation: Five 16 oz glass jars containing either REF (geonol only), geonol only control, antagonist only, mixture of geonol and isointense antagonist, or mixture of geonol and low intensity antagonist were presented to the panelists (last four samples were randomized across panelists). The panelists were asked to familiarize themselves with the earthy/moss odor quality from the REF jar first, then rate the pleasantness, earthy/moss odor intensity and overall odor intensity of the next four samples on a 0-10 linear scale. The inter-stimulus interval between the samples was two minutes to avoid adaptation.

[2] = tested on: geonol earthy/moss odor perception; test: Human sensory performance of test compounds with and without geonol; assay type: in vivo; details: for % Earthy/Moss Odor: Test Compound Only
Excerpt: as §1, with “adaptation. […]” for “adaptation.”
The results are shown in Tables 16 and 17, and FIGS. 3 to 5.

[3] = tested on: geonol receptors Olfr339, Olfr1487, Olfr1A1, OR11A1, Olfr96; test: Antagonists of geonol receptors (Example 11); assay type: cell-based, mouse and human; design: Inhibition(%): concentration or dose not given beside the values; details: Table 18
[4] = tested on: 1-octen-3-ol receptors OR2W1, Olfr93, Olfr120, Olfr398; test: Antagonists of 1-octen-3-ol receptors (Example 11); assay type: cell-based, mouse and human; design: Inhibition(%): concentration or dose not given beside the values; details: Table 19
[5] = tested on: 1-octen-3-ol mushroom/earthy/fungal odor perception; test: Human sensory performance of test compounds with and without 1-octen-3-ol; assay type: in vivo; details: for % Mushroom/Earthy/Fungal Odor: Test Compound Only
[6] = tested on: OR2W1 or the OR1A1 olfactory receptor; test: 1-octen-3-ol olfactory receptor antagonist cell-based dose-response vs 1-octen-3-ol EC80; details: for IC50: 1-octen-3-ol at EC80; for % Inhibition: maximum inhibition normalized to baseline agonist activity
Excerpt: Each cell line was screened with a volatile compound library for their inhibitory properties and potential 1-octen-3-ol smell inhibition.
Single concentration monitoring of the 1-octen-3-ol induced cell activity in the presence or absence of a test compound allowed for the identification of compounds with a putative suppression or inhibitory effect.

[7] = target: T1, OR51E1 olfactory receptor (Homo sapiens, UniProt Q8TCB6); test: Butyric acid olfactory receptor antagonist cell-based dose-response vs butyric acid EC80; details: butyric acid at EC80; Table 5
T1 construct: expressed in transfected cells
T1 sequence (Q8TCB6 1-318): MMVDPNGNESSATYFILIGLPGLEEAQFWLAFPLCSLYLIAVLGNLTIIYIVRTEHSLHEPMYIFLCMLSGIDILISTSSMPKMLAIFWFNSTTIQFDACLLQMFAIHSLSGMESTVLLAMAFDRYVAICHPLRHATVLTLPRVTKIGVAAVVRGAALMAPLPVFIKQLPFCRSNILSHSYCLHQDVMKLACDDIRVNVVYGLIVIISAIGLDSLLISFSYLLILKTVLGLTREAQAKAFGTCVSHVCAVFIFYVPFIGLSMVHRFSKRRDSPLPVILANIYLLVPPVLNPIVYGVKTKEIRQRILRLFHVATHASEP

[8] = tested on: OR11A1, or the OR2M3 olfactory receptor; test: Geonol olfactory receptor antagonist cell-based screening, inhibitory dose-response vs geonol EC80; design: species or system human; details: geonol at EC80
Olfr738 = Olfr738 (Mus musculus, UniProt L7N1X7); test: Indole antagonist dose-response, cAMP HTRF in HEK293T, vs indole EC80; assay type: cell-based
Method: (§2) Using a cell-based assay, mouse receptor Olfr738, Olfr739, Olfr740, Olfr741, 0fr742, Olfr743, Olfr744, Olfr746, Olfr748 and Olfr749 were tested in an HEK293T cell line wherein the endogenous RTP1 gene has been activated and the odorant receptor chaperone was expressed (described in WO2016201153A1). The receptor genes were tagged with a Flag-Rho tag combination. Receptor genes were co-transfected with the canonical olfactory human G-protein alpha subunit Golf gene. Co-expression of the human Golf activates the Gs transduction pathway that leads to an internal cAMP increase upon binding to the appropriate ligand (indole here). Odorant-induced activity was detected by measuring the cAMP increase in the cytosol using an HTRF based kit (CisBio, cAMP dynamic 2 kit, cat. 62AM4PEJ).

Olfr740 = Olfr740 (Mus musculus, UniProt E9PV79); test: as above; assay type: cell-based
Method: as §2

Olfr742 = Olfr742 (Mus musculus, UniProt A2RTP5); test: as above; assay type: cell-based
Method: as §2

[9] = Low Dilution Test Compound + Geonol (0.1%)
[10] = Medium Dilution Test Compound + Geonol (0.1%)

Chain of Olfr740 (E9PV79 entry or part of it): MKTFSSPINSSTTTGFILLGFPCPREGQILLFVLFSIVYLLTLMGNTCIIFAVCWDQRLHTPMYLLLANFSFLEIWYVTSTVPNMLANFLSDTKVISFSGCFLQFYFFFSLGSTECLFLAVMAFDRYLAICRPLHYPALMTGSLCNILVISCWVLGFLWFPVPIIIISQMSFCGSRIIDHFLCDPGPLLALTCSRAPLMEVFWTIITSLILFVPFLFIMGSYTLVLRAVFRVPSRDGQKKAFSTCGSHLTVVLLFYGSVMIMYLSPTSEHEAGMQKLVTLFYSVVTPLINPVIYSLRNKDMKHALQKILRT
Chain of Olfr738 (L7N1X7 entry or part of it): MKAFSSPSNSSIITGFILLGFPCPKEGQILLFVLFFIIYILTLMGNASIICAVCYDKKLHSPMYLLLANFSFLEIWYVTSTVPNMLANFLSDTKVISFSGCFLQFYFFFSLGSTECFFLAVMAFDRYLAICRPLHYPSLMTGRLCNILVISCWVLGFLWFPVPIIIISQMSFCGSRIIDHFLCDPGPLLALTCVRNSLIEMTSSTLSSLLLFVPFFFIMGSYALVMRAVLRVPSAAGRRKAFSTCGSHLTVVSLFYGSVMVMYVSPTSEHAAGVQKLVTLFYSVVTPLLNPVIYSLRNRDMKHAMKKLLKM
Chain of Olfr742 (A2RTP5 entry or part of it): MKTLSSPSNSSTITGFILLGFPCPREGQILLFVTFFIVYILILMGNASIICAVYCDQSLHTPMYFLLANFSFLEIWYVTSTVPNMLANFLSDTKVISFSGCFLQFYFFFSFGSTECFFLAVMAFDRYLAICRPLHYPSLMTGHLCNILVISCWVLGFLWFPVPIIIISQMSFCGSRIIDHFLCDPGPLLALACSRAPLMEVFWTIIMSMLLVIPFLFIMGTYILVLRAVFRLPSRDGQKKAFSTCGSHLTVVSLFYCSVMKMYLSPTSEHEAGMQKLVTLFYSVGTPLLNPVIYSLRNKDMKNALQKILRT

## CC(=O)C=CC1=C(C)CCCC1(C)C [4-(2,6,6-trimethylcyclohexen-1-yl)but-3-en-2-one]
[1]
  % Remaining in human sensory tests: 43* %
[2]
  % Earthy/Moss Odor: 41.80%
[3]
  IC50: 289 µM
  Inhibition(%): 51%
[4]
  IC50: 269 µM
  Inhibition(%): 66%

## CC(C)=CCCC(C)=CCCc1ccncc1 [4-(4,8-dimethylnona-3,7-dienyl)pyridine]
[5]
  % Mushroom/Earthy/Fungal Odor: 44.40%
[6]
  IC50: 134 µM
  % Inhibition: 111.87%

## CC(CC=O)CCCC(C)(C)O (stereo not shown) [7-hydroxy-3,7-dimethyloctanal]
[1]
  % Remaining in human sensory tests: 39* %

## C[C@@H](CC=O)CCCC(C)(C)O [(3~{R})-7-hydroxy-3,7-dimethyloctanal]
[2]; [9]
  % Earthy/Moss Odor Remaining: 68.20%
[2]; [10]
  % Earthy/Moss Odor Remaining: 57.20%
[2]
  % Earthy/Moss Odor: 30.30%
[5]; Low Dilution Test Compound + 1-octen-3-ol (0.15%)
  % Mushroom/Earthy/Fungal Odor Remaining: 70.00%
[5]; Medium Dilution Test Compound + 1-octen-3-ol (0.15%)
  % Mushroom/Earthy/Fungal Odor Remaining: 56.50%
[5]
  % Mushroom/Earthy/Fungal Odor: 20.70%

## CC(=O)OC(C)CC(C)(C)c1ccccc1 (stereo not shown) [(4-methyl-4-phenylpentan-2-yl) acetate]
[7]
  IC50: 59.2 µM
[5]
  % Mushroom/Earthy/Fungal Odor: 52.70%
[3]
  IC50: 627 µM
  Inhibition(%): 84%
[4]
  IC50: 62 µM
  Inhibition(%): 119%
[6]
  IC50: 61.7 µM
  % Inhibition: 98.90%

## C=C(C)[C@@H]1CCC2=CC(=O)C[C@@H](C)[C@]2(C)C1 [(4R,4aS,6R)-4,4a-dimethyl-6-prop-1-en-2-yl-3,4,5,6,7,8-hexahydronaphthalen-2-one]
[8]
  % Inhibition: 50%
[8]; read-out: IC50
  IC50: 486 µM
[2]
  % Earthy/Moss Odor: 70.60%
[4]
  IC50: 36.5 µM
  Inhibition(%): 39%

## CC(C)=CCC[C@@H](C)CC#N [(−)-(R)-3,7-dimethyl-6-octenenitrile]
[8]
  % Inhibition: 10%
[8]; read-out: IC50
  IC50: 300 µM

## CCCCCOC(=O)Cc1ccccc1 [Amyl Phenylacetate]
Olfr738
  IC50: 82.7 µM
Olfr738; Table 22, first listing, vs indole EC80
  Olfr738 % Inhibition: 18.44%
Olfr740
  IC50: 40.4 µM
Olfr740; HEK-293T, read-out: Olfr740 % Inhibition
  Emax: 61%
Olfr742
  IC50: 141 µM
Olfr742; HEK-293T, read-out: Olfr742 % Inhibition
  Emax: 18%

## Cc1ccc(C(C)C)cc1O [Compound 2-methyl-5-propan-2-ylphenol, 2-methyl-5-propan-2-ylphenol]
[8]
  IC50: 215 µM
[2]
  % Earthy/Moss Odor: 40.10%

## CCCCCC1CCCC1=O (stereo not shown) [Compound 2-pentylcyclopentan-1-one, 2-pentylcyclopentan-1-one]
[1]
  % Remaining in human sensory tests: 78%
[2]
  % Earthy/Moss Odor: 40.90%

## CCC=CCC=CC=CC(=O)OCC [ethyl deca-2,4,7-trienoate]
[2]
  % Earthy/Moss Odor: 62.20%
[5]
  % Mushroom/Earthy/Fungal Odor: 56.50%

## CC(C)Cc1ccc2ccccc2n1 [isobutylquinoline, 2-ISOBUTYLQUINOLINE]
[8]
  % Inhibition: 45%
[2]
  % Earthy/Moss Odor: 37.80%
[5]
  % Mushroom/Earthy/Fungal Odor: 27.30%
[6]
  IC50: > 600 µM
  % Inhibition: 30.14%

## CCCCCC/C=C/C=O [nonylenic aldehyde]
[8]
  % Inhibition: 30%
[8]; read-out: IC50
  IC50: 151 µM

## O=C1CCCCCCCCCCCCCCO1 [oxacyclohexadecan-2-one]
[2]
  % Earthy/Moss Odor: 18.70%
[5]
  % Mushroom/Earthy/Fungal Odor: 13.90%
[3]
  IC50: 291 µM
  Inhibition(%): 34%

## CC(=O)OCCc1ccccc1 [phenyl ethyl acetate]
[1]
  % Remaining in human sensory tests: 47* %
[2]; [9]
  % Earthy/Moss Odor Remaining: 97.10%
[2]; [10]
  % Earthy/Moss Odor Remaining: 65.80%
[2]
  % Earthy/Moss Odor: 35.30%
